# In PubChem BioAssay AID651569 (Sanford-Burnham Center for Chemical Genomics, 2012):
# Active and inactive are the calls of the source. No rule for the calls is given here.
# System: luminescent cytotoxicity (cell viability) counter-screen
# Experiment: cytotoxicity of Gli-SUFU antagonist hits, dose response, cytotoxicity control for Gli-SUFU antagonist project, cell-based, luminescence, uHTS hits (AID 651569);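 also: compound exposure lasted overnight before the viability readout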
row,SMILES,IC50
1,O=C(N[C@@H]1C/C=C\C[C@H](CC(=O)N(CCO)Cc2ccccc2)C(=O)NC[C@@H](c2ccccc2)OC1=O)OCC1c2ccccc2-c2ccccc21,> 20 µM (inactive)
2,CCCCCn1c(=N)n(CC(O)COc2ccccc2OC)c2ccccc21 (configuration not stated),> 20 µM (inactive)
3,CCCOc1ccc(Br)cc1CSC(=N)N,8.78 µM
4,Cc1ccc(-c2csc(NC(=O)c3c(C)noc3C)n2)s1,> 20 µM (inactive)
5,CCOC(=O)CSc1c(-c2cccs2)[nH]c2ccccc12,> 20 µM (inactive)
6,COc1ccccc1-n1c(-c2ccccc2)c[n+]2c1CCc1ccccc1-2,> 20 µM (inactive)
7,CCOc1ccc2[nH]c3c(N4CCN(C(=O)c5ccco5)CC4)ncnc3c2c1,> 20 µM (inactive)
8,FC(F)Oc1ccc(-n2cc(-c3ccccc3)[n+]3c2CCCCC3)cc1,> 20 µM (inactive)
9,Cc1nnsc1C(=O)Nc1ccc(S(=O)(=O)N2CCC(C)CC2)cc1,> 20 µM (inactive)
10,CC(C)C(=O)N1CCN(c2ccccc2NC(=O)COc2ccccc2)CC1,> 20 µM (inactive)
11,O=C(Cn1c(-c2ccccc2)c[n+]2ccsc12)c1ccc(Br)cc1,> 20 µM (inactive)
12,CCn1c(=O)cc(SCC(=O)N2CCN(C3CCCCC3)CC2)c2ccccc21,> 20 µM (inactive)
13,Cc1ccc(C2=C(CC(=O)O)C(=O)CC2)cc1,> 20 µM (inactive)
14,CC(C)C[C@H]1CN=C(N(C)C)N1CCCCc1ccccc1,> 20 µM (inactive)
15,COc1nnc(-c2ccc(N3CCCCC3)c(N)c2)c2ccccc12,> 20 µM (inactive)
16,CC1=CC(C)C2(COC(c3ccc[n+](C)c3)OC2)C(C)C1 (configuration not stated),> 20 µM (inactive)
17,CCOC(=O)N1CCN(C(=O)c2cc(COc3ccc4ncccc4c3)on2)CC1,> 20 µM (inactive)
18,O=C(N[C@H]1C/C=C\C[C@@H](CC(=O)N(CCO)Cc2ccccc2)C(=O)NC[C@H](c2ccccc2)OC1=O)OCC1c2ccccc2-c2ccccc21,> 20 µM (inactive)
19,COCCNc1nc2c(c(=O)n(C)c(=O)n2C)n1Cc1cccc(C(F)(F)F)c1,12.4 µM
20,CCOc1ccc(-c2nc(CSCC(=O)NC3CC3)c(C)o2)cc1,> 20 µM (inactive)
21,FC(F)(F)c1ccc(N2CCN(c3cc(-c4ccccc4)nc4ncnn34)CC2)nc1,> 20 µM (inactive)

row,SMILES,IC50
1,COc1ccc(NS(=O)(=O)c2ccc(N3CCN(CCO)CC3)c([N+](=O)[O-])c2)cc1,> 20 µM (inactive)
2,CCCCCCCNC1=CC(=O)CC(c2ccccc2)C1 (configuration not stated),16.5 µM
3,C[N+]1=C(/C=C/Nc2ccccc2)C(C)(C)c2ccccc21,> 20 µM (inactive)
4,Cc1ccc(Cl)cc1N1CCN(C(=O)CSc2nnc3n2C(C)(C)Cc2ccccc2-3)CC1,> 20 µM (inactive)
5,CCC(C)NS(=O)(=O)c1ccc(S(=O)(=O)N2CCCC3(CCCCC3)C2)cc1 (configuration not stated),> 20 µM (inactive)
6,Cc1nn(C)c(C)c1/C=C/C(=O)c1ccc(Cl)cc1Cl,> 20 µM (inactive)
7,CN(CCOc1ccc(Cl)cc1)C(=O)c1cccc(S(=O)(=O)N2CCN(c3ccc(F)cc3)CC2)c1,> 20 µM (inactive)
8,c1ccc(-c2c[n+]3c(n2-c2ccccc2)SCC3)cc1,> 20 µM (inactive)
9,Cc1ccc(S(=O)(=O)NCCC2=CCCCC2)cc1C(N)=O,> 20 µM (inactive)
10,Cc1nnsc1C(=O)NC1CCCc2c1cnn2-c1ccc(F)cc1F (configuration not stated),> 20 µM (inactive)
11,C(#Cc1ccccc1)C[N+]1(CC#Cc2ccccc2)CCCC1,> 20 µM (inactive)
12,O=C(Nc1ccccc1)C1=C[C@H](C2CCCCC2)C[C@H](OCCCCO)O1,> 20 µM (inactive)
13,COc1ccc(CNCC(O)COc2cccc3c2OC(C)(C)C3)cc1 (configuration not stated),> 20 µM (inactive)
14,CNS(=O)(=O)c1cccc(C(=O)OCC(=O)c2cc(C)n(CC3CCCO3)c2C)c1 (configuration not stated),> 20 µM (inactive)
15,C=CCn1c(O)c(N=NC(=S)Nc2cccc(C)c2)c2ccccc21,> 20 µM (inactive)
16,C=CCNc1nc2c(c(=O)n(C)c(=O)n2C)n1Cc1ccc(F)cc1,> 20 µM (inactive)
17,Cc1cc(Br)c(S(=O)(=O)NCc2ccncc2)cc1C,> 20 µM (inactive)
18,O=S(=O)(NCc1ccncc1)c1ccc(S(=O)(=O)NCC2CCCO2)cc1 (configuration not stated),> 20 µM (inactive)
19,CCCOc1ccccc1N/C(=N/c1nc(C)cc(C)n1)NC(=O)COc1ccc(OC)cc1,> 20 µM (inactive)
20,c1ccc(C[n+]2cccc(-c3ccccc3)c2)cc1,> 20 µM (inactive)
21,COc1ccc(-n2c(-c3ccc(Cl)cc3)c[n+]3c2CCc2ccccc2-3)cc1,> 20 µM (inactive)

row,SMILES,IC50
1,CC1Cc2cc(S(=O)(=O)N3CCC(C(=O)N4CCN(c5ccccc5F)CC4)CC3)ccc2N1C(=O)C1CC1 (configuration not stated),7.01 µM
2,CC(C)Cn1c(N)c(C(=O)COC(=O)C2Cc3ccccc3CN2S(C)(=O)=O)c(=O)n(C)c1=O (configuration not stated),> 20 µM (inactive)
3,Cc1nn(Cc2noc(C(=O)NC3CCC(C)CC3)n2)c(C)c1Br (configuration not stated),> 20 µM (inactive)
4,O=C(C1CCCCC1)N1CCN(c2ccnc3cc(Cl)ccc23)CC1,> 20 µM (inactive)
5,Cc1ccsc1CNc1ncnc2ccc(-c3c(C)noc3C)cc12,> 20 µM (inactive)
6,CCc1c(C)nc2ncnn2c1N1CCN(S(=O)(=O)c2ccc(OC)cc2)CC1,> 20 µM (inactive)
7,Cn1nc(CC(=O)NCc2ccc(C(F)(F)F)cc2)c2ccccc2c1=O,> 20 µM (inactive)
8,O=C(Cc1ccc(Cl)cc1Cl)Nc1ccncc1,> 20 µM (inactive)
9,CCN(CC)S(=O)(=O)c1ccc(C)c(NC(=S)N2CCN(Cc3ccc4c(c3)OCO4)CC2)c1,> 20 µM (inactive)
10,CCCCCCCOc1ccc(OC(=O)c2cccnc2)cc1,> 20 µM (inactive)
11,Cc1ccc(C)c(-c2csc(NC(=O)C3=COCCO3)n2)c1,> 20 µM (inactive)
12,COc1ccc(C(=O)C[n+]2cc(-c3ccc(OC)cc3)n3c2CCCC3)cc1,> 20 µM (inactive)
13,COc1ccc(-c2c(C#N)c(N)nc3c2CCc2ccccc2-3)cc1OC,8.1 µM
14,C=CCOc1nc2c(c(=O)n(C)c(=O)n2C)n1Cc1ccc(Cl)cc1,> 20 µM (inactive)
15,CC(C)(C)OC(=O)N1CCC(c2cc(-c3cccs3)n[nH]2)CC1,> 20 µM (inactive)
16,CC(=O)c1cn(CCOc2ccccc2C)c2ccccc12,> 20 µM (inactive)
17,O=C(Nc1ccncc1)c1ccc(-c2ccccc2)cc1,> 20 µM (inactive)
18,NC(=O)CC(NC(=O)c1ccccc1)c1ccc(N2CCCCCC2)c([N+](=O)[O-])c1 (configuration not stated),> 20 µM (inactive)
19,C[n+]1c2n(c3ccccc31)N=C(c1ccccc1)CS2,> 20 µM (inactive)
20,CN(C)CCn1c2ccccc2c2nc3ccc([N+](=O)[O-])cc3cc21,> 20 µM (inactive)
21,CC(C)(C)[C@H]1COC(=O)[C@H](NC(=O)OCC2c3ccccc3-c3ccccc32)C/C=C\C[C@@H](CC(=O)N(CCO)Cc2ccccc2)C(=O)N1,> 20 µM (inactive)

row,SMILES,IC50
1,O=C(C[C@H]1C/C=C\C[C@@H](NC(=O)OCC2c3ccccc3-c3ccccc32)C(=O)O[C@@H](c2ccccc2)CNC1=O)N[C@H](CO)Cc1ccccc1,> 20 µM (inactive)
2,Cc1cc(C)nc(SCC(=O)Nc2ccc(N3CCOCC3)c(Cl)c2)n1,> 20 µM (inactive)
3,COc1ccccc1-c1c(-c2ccc(O)cc2O)n[nH]c1C(F)(F)F,> 20 µM (inactive)
4,CC(C)(C)c1ccc(CN2C3=NCCCN3c3ccccc32)cc1,19.1 µM
5,CCn1c(/C=C/Nc2ccccc2)[n+](CC)c2cc(Cl)c(Cl)cc21,9.98 µM
6,O=c1c2ccccc2nc2n1C(CSCc1cccc(C(F)(F)F)c1)CS2 (configuration not stated),> 20 µM (inactive)
7,CCNc1nc(CN2CCCCC2)nc2scc(-c3ccccc3)c12,15.6 µM
8,Cc1nc2ccccc2c2oc(C(=O)N3CCN(C4CCCCC4)CC3)cc12,> 20 µM (inactive)
9,Cc1ccc(S(=O)(=O)N2CCN(C(=O)c3ccc(S(=O)(=O)N4CCCC4)cc3)CC2)cc1,> 20 µM (inactive)
10,O=C(Nc1cc2c3c(c1)C1CCCC1CN3CC1CCCC21)c1ccc([N+](=O)[O-])cc1 (configuration not stated),> 20 µM (inactive)
11,CC(=O)N1c2ccc(S(=O)(=O)N3CCC(C(=O)N4CCCCC4)CC3)cc2CC1C (configuration not stated),> 20 µM (inactive)
12,O=C(C[C@@H]1C/C=C\C[C@@H](NC(=O)OCC2c3ccccc3-c3ccccc32)C(=O)OC[C@@H](Cc2ccccc2)NC1=O)NCCO,> 20 µM (inactive)
13,O=C(Cn1cc(C(=O)c2ccco2)c2ccccc21)Nc1ccccc1F,> 20 µM (inactive)
14,Cn1c(=O)c2c(nc(NCc3ccco3)n2Cc2ccc(Cl)cc2Cl)n(C)c1=O,> 20 µM (inactive)
15,CCCc1c(CC)c(=N)c2ccccc2n1C,> 20 µM (inactive)
16,CC(C)(C)OC(=O)NCCCCCc1cn(CC(=O)NCCCCCCCCCCC(=O)N2CCN(C(=O)OC(C)(C)C)CC2)nn1,> 20 µM (inactive)
17,O=C(c1cc(COc2cccc3cnccc23)on1)N1CCCC(CCCO)C1 (configuration not stated),> 20 µM (inactive)
18,O=C(NC(c1cccnc1)C(F)(F)F)c1cc(COc2ccc3c(c2)CCCC3)on1 (configuration not stated),> 20 µM (inactive)
19,CCn1c(/C=C/Nc2ccccc2)[n+](CC)c2ccc(Cl)cc21,> 20 µM (inactive)
